Data from ChEMBL document CHEMBL4507287, “Data for DCP probe MRL-650” (2021).

What was measured:
Settings in all cases: Compound concentration 1000.0 nM
[1] = target: Cytoplasmic tyrosine-protein kinase BMX (Homo sapiens) (UniProt P51813)
[2] = test system: Mast/stem cell growth factor receptor Kit (Homo sapiens), P10721 [L576P]
[3] = target: Epithelial discoidin domain-containing receptor 1 (Homo sapiens) (UniProt Q08345)
[4] = target: Activin receptor type-1B (Homo sapiens) (UniProt P36896)
[5] = target: Serine/threonine-protein kinase Nek3 (Homo sapiens) (UniProt P51956)
[6] = target: Serine/threonine-protein kinase PLK4 (Homo sapiens) (UniProt O00444)
[7] = test system: Receptor-type tyrosine-protein kinase FLT3 (Homo sapiens), P36888 [D835Y]
[8] = target: Calcium/calmodulin-dependent protein kinase type IV (Homo sapiens) (UniProt Q16566)
Chain of Calcium/calmodulin-dependent protein kinase type IV (Homo sapiens) (Q16566 whole entry): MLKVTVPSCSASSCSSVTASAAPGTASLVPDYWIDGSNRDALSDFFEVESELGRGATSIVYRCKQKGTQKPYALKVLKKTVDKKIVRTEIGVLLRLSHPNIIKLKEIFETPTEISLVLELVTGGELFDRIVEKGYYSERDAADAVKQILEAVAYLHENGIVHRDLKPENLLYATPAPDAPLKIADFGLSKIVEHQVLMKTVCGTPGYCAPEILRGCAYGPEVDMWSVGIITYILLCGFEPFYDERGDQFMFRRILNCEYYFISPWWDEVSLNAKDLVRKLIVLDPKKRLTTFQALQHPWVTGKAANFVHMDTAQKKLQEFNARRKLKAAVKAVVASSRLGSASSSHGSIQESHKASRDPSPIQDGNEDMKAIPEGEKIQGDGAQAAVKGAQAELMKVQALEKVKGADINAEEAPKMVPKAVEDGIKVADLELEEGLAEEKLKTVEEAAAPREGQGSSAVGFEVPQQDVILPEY

[9] = target: Serine/threonine-protein kinase TAO2 (Homo sapiens) (UniProt Q9UL54)
[10] = target: Tyrosine-protein kinase Srms (Homo sapiens) (UniProt Q9H3Y6)
[11] = target: Serine/threonine-protein kinase PLK3 (Homo sapiens) (UniProt Q9H4B4)
[12] = target: Dual specificity protein kinase CLK3 (Homo sapiens) (UniProt P49761)
[13] = target: Mitogen-activated protein kinase 10 (Homo sapiens) (UniProt P53779)
[14] = target: Receptor-type tyrosine-protein kinase FLT3 (Homo sapiens) (UniProt P36888)
[15] = target: Calcium/calmodulin-dependent protein kinase kinase 1 (Homo sapiens) (UniProt Q8N5S9)
Chain of Calcium/calmodulin-dependent protein kinase kinase 1 (Homo sapiens) (Q8N5S9 whole entry, looked up, the tested form may be a part): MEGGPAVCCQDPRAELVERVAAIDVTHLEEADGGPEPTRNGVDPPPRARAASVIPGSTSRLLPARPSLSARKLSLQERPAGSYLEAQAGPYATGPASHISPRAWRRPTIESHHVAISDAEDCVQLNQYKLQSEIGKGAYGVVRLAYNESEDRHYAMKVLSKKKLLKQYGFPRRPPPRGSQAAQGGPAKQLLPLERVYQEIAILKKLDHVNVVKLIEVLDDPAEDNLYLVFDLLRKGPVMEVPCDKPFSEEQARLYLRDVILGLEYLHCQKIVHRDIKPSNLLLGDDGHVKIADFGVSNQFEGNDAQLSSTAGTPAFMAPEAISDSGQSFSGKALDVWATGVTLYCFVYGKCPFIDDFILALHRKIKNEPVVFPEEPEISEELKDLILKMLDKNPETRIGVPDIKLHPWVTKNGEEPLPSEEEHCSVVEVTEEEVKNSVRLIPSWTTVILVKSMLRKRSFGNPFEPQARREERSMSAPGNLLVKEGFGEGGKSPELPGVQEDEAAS

[16] = target: Ankyrin repeat and protein kinase domain-containing protein 1 (Homo sapiens) (UniProt Q8NFD2)
Chain of Ankyrin repeat and protein kinase domain-containing protein 1 (Homo sapiens) (Q8NFD2 whole entry, the tested form may be a part): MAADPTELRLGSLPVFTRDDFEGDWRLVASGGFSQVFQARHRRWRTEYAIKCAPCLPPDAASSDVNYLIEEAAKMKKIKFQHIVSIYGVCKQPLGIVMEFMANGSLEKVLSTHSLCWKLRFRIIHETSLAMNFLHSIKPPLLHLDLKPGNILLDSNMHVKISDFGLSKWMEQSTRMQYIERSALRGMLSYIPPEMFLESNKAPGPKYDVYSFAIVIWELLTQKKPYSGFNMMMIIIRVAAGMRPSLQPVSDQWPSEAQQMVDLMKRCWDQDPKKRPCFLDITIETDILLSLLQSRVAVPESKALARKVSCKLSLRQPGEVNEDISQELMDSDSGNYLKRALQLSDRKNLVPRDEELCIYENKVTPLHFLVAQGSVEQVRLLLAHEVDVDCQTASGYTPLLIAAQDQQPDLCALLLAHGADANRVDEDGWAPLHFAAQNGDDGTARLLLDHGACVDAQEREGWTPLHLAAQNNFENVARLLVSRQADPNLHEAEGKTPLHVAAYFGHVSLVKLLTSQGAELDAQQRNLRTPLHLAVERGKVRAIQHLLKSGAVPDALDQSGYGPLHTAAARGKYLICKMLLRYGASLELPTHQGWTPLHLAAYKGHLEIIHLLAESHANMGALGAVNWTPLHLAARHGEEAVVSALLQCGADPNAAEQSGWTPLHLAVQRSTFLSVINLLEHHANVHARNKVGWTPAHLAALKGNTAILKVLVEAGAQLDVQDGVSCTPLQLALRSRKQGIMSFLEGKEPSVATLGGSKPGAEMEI

[17] = target: SNF-related serine/threonine-protein kinase (Homo sapiens) (UniProt Q9NRH2)
[18] = target: Tyrosine-protein kinase Fgr (Homo sapiens) (UniProt P09769)
[19] = target: AP2-associated protein kinase 1 (Homo sapiens) (UniProt Q2M2I8)
Chain of AP2-associated protein kinase 1 (Homo sapiens) (Q2M2I8 whole entry, looked up): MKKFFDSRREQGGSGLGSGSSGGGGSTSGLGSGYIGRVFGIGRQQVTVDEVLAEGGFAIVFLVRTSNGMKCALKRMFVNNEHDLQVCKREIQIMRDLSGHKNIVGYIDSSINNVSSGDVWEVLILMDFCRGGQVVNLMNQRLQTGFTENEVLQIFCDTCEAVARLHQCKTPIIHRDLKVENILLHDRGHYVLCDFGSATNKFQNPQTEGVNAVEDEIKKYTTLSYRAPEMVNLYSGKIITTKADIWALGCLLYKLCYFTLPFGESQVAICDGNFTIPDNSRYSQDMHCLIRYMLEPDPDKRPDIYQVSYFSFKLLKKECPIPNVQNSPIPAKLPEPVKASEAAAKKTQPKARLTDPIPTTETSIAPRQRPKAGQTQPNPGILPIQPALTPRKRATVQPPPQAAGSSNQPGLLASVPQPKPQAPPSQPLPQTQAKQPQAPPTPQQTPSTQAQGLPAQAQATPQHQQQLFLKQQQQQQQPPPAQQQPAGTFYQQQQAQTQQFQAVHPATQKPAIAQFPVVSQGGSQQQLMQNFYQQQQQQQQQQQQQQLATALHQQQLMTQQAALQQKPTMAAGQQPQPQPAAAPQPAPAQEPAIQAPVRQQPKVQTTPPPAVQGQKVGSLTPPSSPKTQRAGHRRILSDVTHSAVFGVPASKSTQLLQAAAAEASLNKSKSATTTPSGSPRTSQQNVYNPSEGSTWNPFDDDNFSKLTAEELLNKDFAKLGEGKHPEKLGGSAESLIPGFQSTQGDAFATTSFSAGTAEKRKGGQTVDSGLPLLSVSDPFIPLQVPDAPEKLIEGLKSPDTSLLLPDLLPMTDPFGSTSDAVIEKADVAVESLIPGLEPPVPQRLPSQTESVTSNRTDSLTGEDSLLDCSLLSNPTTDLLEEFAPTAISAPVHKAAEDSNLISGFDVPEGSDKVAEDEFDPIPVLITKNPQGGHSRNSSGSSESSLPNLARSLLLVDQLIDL

[20] = target: 5'-AMP-activated protein kinase catalytic subunit alpha-1 (Homo sapiens) (UniProt Q13131)
[21] = target: Aurora kinase C (Homo sapiens) (UniProt Q9UQB9)
[22] = target: Ephrin type-B receptor 6 (Homo sapiens) (UniProt O15197)
[23] = target: Tyrosine-protein kinase ABL1 (Homo sapiens) (UniProt P00519)
[24] = target: Serine/threonine-protein kinase 4 (Homo sapiens) (UniProt Q13043)
[25] = target: SRSF protein kinase 1 (Homo sapiens) (UniProt Q96SB4)
[26] = target: Myosin light chain kinase family member 4 (Homo sapiens) (UniProt Q86YV6)
[27] = target: Phosphatidylinositol 4-phosphate 3-kinase C2 domain-containing subunit beta (Homo sapiens) (UniProt O00750)
[28] = target: Casein kinase I isoform gamma-3 (Homo sapiens) (UniProt Q9Y6M4)
[29] = target: Bone morphogenetic protein receptor type-1B (Homo sapiens) (UniProt O00238)
[30] = test system: Epidermal growth factor receptor (Homo sapiens), P00533 [T790M]
[31] = target: Serine/threonine-protein kinase ICK (Homo sapiens) (UniProt Q9UPZ9)
Chain of Serine/threonine-protein kinase ICK (Homo sapiens) (Q9UPZ9 whole entry): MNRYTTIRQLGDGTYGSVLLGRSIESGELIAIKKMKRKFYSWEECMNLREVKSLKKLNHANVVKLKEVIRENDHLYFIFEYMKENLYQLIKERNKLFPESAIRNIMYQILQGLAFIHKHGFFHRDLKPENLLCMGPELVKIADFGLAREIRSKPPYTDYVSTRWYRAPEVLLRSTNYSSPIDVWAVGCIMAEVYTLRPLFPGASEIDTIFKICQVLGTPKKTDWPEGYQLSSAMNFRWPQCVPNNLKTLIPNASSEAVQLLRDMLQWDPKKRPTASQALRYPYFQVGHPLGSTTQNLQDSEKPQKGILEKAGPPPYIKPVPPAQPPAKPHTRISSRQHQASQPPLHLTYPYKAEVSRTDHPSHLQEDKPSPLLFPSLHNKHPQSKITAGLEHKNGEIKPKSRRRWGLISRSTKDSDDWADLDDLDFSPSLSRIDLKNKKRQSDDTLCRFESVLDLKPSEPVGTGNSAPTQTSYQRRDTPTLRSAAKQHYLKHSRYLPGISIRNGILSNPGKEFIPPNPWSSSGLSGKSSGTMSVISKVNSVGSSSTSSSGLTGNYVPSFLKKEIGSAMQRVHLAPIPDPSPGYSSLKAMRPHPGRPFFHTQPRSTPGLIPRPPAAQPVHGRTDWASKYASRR

[32] = target: Serine/threonine-protein kinase 3 (Homo sapiens) (UniProt Q13188)
[33] = target: Interleukin-1 receptor-associated kinase 1 (Homo sapiens) (UniProt P51617)
[34] = target: Serine/threonine-protein kinase N2 (Homo sapiens) (UniProt Q16513)
Chain of Serine/threonine-protein kinase N2 (Homo sapiens) (Q16513 whole entry, looked up): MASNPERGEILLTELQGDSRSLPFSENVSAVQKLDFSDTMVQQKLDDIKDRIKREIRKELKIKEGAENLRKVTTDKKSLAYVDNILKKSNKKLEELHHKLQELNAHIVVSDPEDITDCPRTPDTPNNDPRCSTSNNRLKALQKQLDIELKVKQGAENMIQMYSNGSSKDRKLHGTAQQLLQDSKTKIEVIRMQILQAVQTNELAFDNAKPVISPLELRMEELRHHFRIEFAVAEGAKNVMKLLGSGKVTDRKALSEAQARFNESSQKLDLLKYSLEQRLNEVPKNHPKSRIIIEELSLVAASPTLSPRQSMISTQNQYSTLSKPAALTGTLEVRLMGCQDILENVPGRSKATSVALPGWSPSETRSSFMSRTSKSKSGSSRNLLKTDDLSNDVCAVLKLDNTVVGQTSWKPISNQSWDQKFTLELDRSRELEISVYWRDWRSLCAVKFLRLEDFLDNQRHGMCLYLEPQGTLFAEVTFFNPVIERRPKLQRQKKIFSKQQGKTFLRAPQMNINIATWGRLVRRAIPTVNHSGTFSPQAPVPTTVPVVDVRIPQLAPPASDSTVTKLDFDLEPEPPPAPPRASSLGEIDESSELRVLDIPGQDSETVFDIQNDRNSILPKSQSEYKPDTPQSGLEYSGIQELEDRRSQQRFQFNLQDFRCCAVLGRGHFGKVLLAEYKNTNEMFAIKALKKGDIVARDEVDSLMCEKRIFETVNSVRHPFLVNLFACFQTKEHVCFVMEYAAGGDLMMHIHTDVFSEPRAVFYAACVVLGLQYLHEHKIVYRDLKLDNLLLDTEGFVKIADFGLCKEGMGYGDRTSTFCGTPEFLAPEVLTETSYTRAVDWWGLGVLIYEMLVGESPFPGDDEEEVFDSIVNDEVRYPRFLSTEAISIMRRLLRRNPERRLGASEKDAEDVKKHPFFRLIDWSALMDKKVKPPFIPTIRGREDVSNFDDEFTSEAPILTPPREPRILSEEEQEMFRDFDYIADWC

[35] = target: Serine/threonine-protein kinase VRK2 (Homo sapiens) (UniProt Q86Y07)
[36] = target: SRSF protein kinase 3 (Homo sapiens) (UniProt Q9UPE1)
[37] = target: Serine/threonine-protein kinase Nek5 (Homo sapiens) (UniProt Q6P3R8)
[38] = target: Serine/threonine-protein kinase TBK1 (Homo sapiens) (UniProt Q9UHD2)
[39] = test system: Tyrosine-protein kinase ABL1 (Homo sapiens), P00519 [F317L]
[40] = target: Microtubule-associated serine/threonine-protein kinase 1 (Homo sapiens) (UniProt Q9Y2H9)
[41] = target: Cyclin-dependent kinase-like 2 (Homo sapiens) (UniProt Q92772)
[42] = target: Myosin light chain kinase 2, skeletal/cardiac muscle (Homo sapiens) (UniProt Q9H1R3)
[43] = target: Leucine-rich repeat serine/threonine-protein kinase 2 (Homo sapiens) (UniProt Q5S007)
[44] = target: BDNF/NT-3 growth factors receptor (Homo sapiens) (UniProt Q16620)
[45] = target: Serine/threonine-protein kinase MARK1 (Homo sapiens) (UniProt Q9P0L2)

Chain of Cytoplasmic tyrosine-protein kinase BMX (Homo sapiens) (P51813 whole entry): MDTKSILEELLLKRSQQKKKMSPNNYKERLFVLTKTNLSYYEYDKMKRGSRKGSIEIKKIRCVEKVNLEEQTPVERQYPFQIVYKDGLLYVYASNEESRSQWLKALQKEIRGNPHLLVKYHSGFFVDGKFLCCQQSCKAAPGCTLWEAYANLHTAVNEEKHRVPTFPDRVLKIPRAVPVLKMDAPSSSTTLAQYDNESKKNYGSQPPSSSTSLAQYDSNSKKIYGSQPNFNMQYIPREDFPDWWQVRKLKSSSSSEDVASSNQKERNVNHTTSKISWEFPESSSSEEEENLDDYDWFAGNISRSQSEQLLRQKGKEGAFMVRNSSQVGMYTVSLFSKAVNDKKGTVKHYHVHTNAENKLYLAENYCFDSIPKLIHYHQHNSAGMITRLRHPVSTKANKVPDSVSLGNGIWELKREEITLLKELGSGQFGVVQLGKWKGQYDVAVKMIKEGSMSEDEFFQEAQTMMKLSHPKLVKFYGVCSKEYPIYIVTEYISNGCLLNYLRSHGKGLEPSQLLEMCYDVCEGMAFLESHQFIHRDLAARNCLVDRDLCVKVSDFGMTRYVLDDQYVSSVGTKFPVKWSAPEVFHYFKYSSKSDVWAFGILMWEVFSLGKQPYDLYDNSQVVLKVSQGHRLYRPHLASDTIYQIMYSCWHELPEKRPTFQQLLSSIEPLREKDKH

Work on `CC(=O)c1c(NS(C)(=O)=O)c2cc(-c3ccc(Cl)cc3)c(-c3ccc(Cl)cc3Cl)nc2n(C)c1=O` [MRL-CB1-NC] yielded a residual activity [1] of 100%, a residual activity [2] of 99% and a residual activity [3] of 100%. For the same molecule, the residual activity [4] was 92%, the residual activity [5] was 67% and the residual activity [6] was 100%. It also gave a residual activity [7] of 95%, a residual activity [8] of 100% and a residual activity [9] of 97%. The residual activity [10] was 71%, the residual activity [11] was 89% and the residual activity [12] was 92%. It also gave a residual activity [13] of 78%, a residual activity [14] of 92% and a residual activity [15] of 100%. It also gave a residual activity [16] of 70%, a residual activity [17] of 98% and a residual activity [18] of 100%. For the same molecule, the residual activity [19] was 100%, the residual activity [20] was 100% and the residual activity [21] was 100%. It also gave a residual activity [22] of 100%, a residual activity [23] of 91% and a residual activity [24] of 100%. The residual activity [25] was 100%, the residual activity [26] was 100% and the residual activity [27] was 100%. For the same molecule, the residual activity [28] was 100%, the residual activity [29] was 100% and the residual activity [30] was 64%. For the same molecule, the residual activity [31] was 77%, the residual activity [32] was 100% and the residual activity [33] was 92%. For the same molecule, the residual activity [34] was 76%, the residual activity [35] was 100% and the residual activity [36] was 100%. The residual activity [37] was 100%, the residual activity [38] was 92% and the residual activity [39] was 75%. It also gave a residual activity [40] of 100%, a residual activity [41] of 99% and a residual activity [42] of 98%. For the same molecule, the residual activity [43] was 65%, the residual activity [44] was 94% and the residual activity [45] was 100%.
Molecule `CC(=O)Nc1c(C(C)=O)c(=O)n(C)c2nc(-c3ccc(Cl)cc3Cl)c(-c3ccc(Cl)cc3)cc12` [NAPHTHYRIDINONE] has a residual activity [1] of 100%, a residual activity [2] of 100% and a residual activity [3] of 100%. It also gave a residual activity [4] of 94%, a residual activity [5] of 100% and a residual activity [6] of 100%. For the same molecule, the residual activity [7] was 100%, the residual activity [8] was 100% and the residual activity [9] was 88%. It also gave a residual activity [10] of 78%, a residual activity [11] of 100% and a residual activity [12] of 100%. The residual activity [13] was 100%, the residual activity [14] was 100% and the residual activity [15] was 100%. It also gave a residual activity [16] of 100%, a residual activity [17] of 78% and a residual activity [18] of 100%. The residual activity [19] was 100%, the residual activity [20] was 100% and the residual activity [21] was 100%. For the same molecule, the residual activity [22] was 100%, the residual activity [23] was 85% and the residual activity [24] was 100%. The residual activity [25] was 100%, the residual activity [26] was 100% and the residual activity [27] was 48%. The residual activity [28] was 100%, the residual activity [29] was 100% and the residual activity [30] was 100%. For the same molecule, the residual activity [31] was 100%, the residual activity [32] was 100% and the residual activity [33] was 97%. For the same molecule, the residual activity [34] was 100%, the residual activity [35] was 100% and the residual activity [36] was 100%. The residual activity [37] was 100%, the residual activity [38] was 81% and the residual activity [39] was 100%. It also gave a residual activity [40] of 100%, a residual activity [41] of 100% and a residual activity [42] of 100%. The residual activity [43] was 100%, the residual activity [44] was 100% and the residual activity [45] was 100%.
